According to the NIST ThermoML archive (doi:10.1016/j.fluid.2015.03.015):
“And” between values parts separate entries of the source, which are not always exact repeats. Identical values can stand only once. ± gives the expanded uncertainty stated by the source.

Assay: refractive index (other wavelength) (dimensionless); xn = mol fraction of the nth substance listed

Structure (SMILES): CCCCCCCC[n+]1ccn(C)c1.F[B-](F)(F)F [1-methyl-3-octylimidazolium tetrafluoroborate] + CCCCCCCO
- refractive index (307.36 K, Liquid mixture 2, Wavelength=623.8 nm, Minimum deviation, x1 = 0.199): 1.4211 ± 0.0003
- refractive index (307.39 K, Liquid mixture 1, Wavelength=623.8 nm, Minimum deviation, x1 = 0.089): 1.4194 ± 0.0003
- refractive index (307.39 K, Liquid mixture 2, Wavelength=623.8 nm, Minimum deviation, x1 = 0.193): 1.421 ± 0.0003
- refractive index (307.41 K, Liquid mixture 1, Wavelength=623.8 nm, Minimum deviation, x1 = 0.09): 1.4194 ± 0.0003
- refractive index (307.41 K, Liquid mixture 2, Wavelength=623.8 nm, Minimum deviation, x1 = 0.186): 1.4209 ± 0.0003
- refractive index (307.44 K, Liquid mixture 1, Wavelength=623.8 nm, Minimum deviation, x1 = 0.096): 1.4195 ± 0.0003
- refractive index (307.44 K, Liquid mixture 2, Wavelength=623.8 nm, Minimum deviation, x1 = 0.187): 1.4209 ± 0.0003
- refractive index (307.45 K, Liquid mixture 1, Wavelength=623.8 nm, Minimum deviation, x1 = 0.097): 1.4195 ± 0.0003
- refractive index (307.45 K, Liquid mixture 2, Wavelength=623.8 nm, Minimum deviation, x1 = 0.18): 1.4208 ± 0.0003
- refractive index (307.47 K, Liquid mixture 1, Wavelength=623.8 nm, Minimum deviation, x1 = 0.097): 1.4195 ± 0.0003
- refractive index (307.47 K, Liquid mixture 2, Wavelength=623.8 nm, Minimum deviation, x1 = 0.181): 1.4208 ± 0.0003
- refractive index (307.48 K, Liquid mixture 1, Wavelength=623.8 nm, Minimum deviation, x1 = 0.097): 1.4195 ± 0.0003
- refractive index (307.48 K, Liquid mixture 2, Wavelength=623.8 nm, Minimum deviation, x1 = 0.174): 1.4207 ± 0.0003
- refractive index (307.49 K, Liquid mixture 1, Wavelength=623.8 nm, Minimum deviation, x1 = 0.104): 1.4196 ± 0.0003
- refractive index (307.49 K, Liquid mixture 2, Wavelength=623.8 nm, Minimum deviation, x1 = 0.175): 1.4207 ± 0.0003
- refractive index (307.5 K, Liquid mixture 1, Wavelength=623.8 nm, Minimum deviation, x1 = 0.104): 1.4196 ± 0.0003
- refractive index (307.5 K, Liquid mixture 2, Wavelength=623.8 nm, Minimum deviation, x1 = 0.168): 1.4206 ± 0.0003
- refractive index (307.51 K, Liquid mixture 1, Wavelength=623.8 nm, Minimum deviation, x1 = 0.104): 1.4196 ± 0.0003
- refractive index (307.51 K, Liquid mixture 2, Wavelength=623.8 nm, Minimum deviation, x1 = 0.168): 1.4206 ± 0.0003
- refractive index (307.52 K, Liquid mixture 1, Wavelength=623.8 nm, Minimum deviation, x1 = 0.104): 1.4196 ± 0.0003
- refractive index (307.52 K, Liquid mixture 1, Wavelength=623.8 nm, Minimum deviation, x1 = 0.111): 1.4197 ± 0.0003
- refractive index (307.52 K, Liquid mixture 2, Wavelength=623.8 nm, Minimum deviation, x1 = 0.155): 1.4204 ± 0.0003
- refractive index (307.52 K, Liquid mixture 2, Wavelength=623.8 nm, Minimum deviation, x1 = 0.162): 1.4205 ± 0.0003 and 1.4205 ± 0.0005
- refractive index (307.53 K, Liquid mixture 1, Wavelength=623.8 nm, Minimum deviation, x1 = 0.111): 1.4197 ± 0.0003
- refractive index (307.53 K, Liquid mixture 1, Wavelength=623.8 nm, Minimum deviation, x1 = 0.117): 1.4198 ± 0.0003 and 1.4198 ± 0.0004
- refractive index (307.53 K, Liquid mixture 2, Wavelength=623.8 nm, Minimum deviation, x1 = 0.149): 1.4203 ± 0.0003
- refractive index (307.53 K, Liquid mixture 2, Wavelength=623.8 nm, Minimum deviation, x1 = 0.155): 1.4204 ± 0.0003
- refractive index (307.74 K, 85 kPa, Liquid, Wavelength=632.8 nm, Minimum Deviation, x1 = 0.2): 1.421 ± 0.0003
- refractive index (307.74 K, 85 kPa, Liquid, Wavelength=632.8 nm, Minimum Deviation, x1 = 0.3): 1.4225 ± 0.0003
- refractive index (308 K, 85 kPa, Liquid, Wavelength=632.8 nm, Minimum Deviation, x1 = 0.399): 1.4235 ± 0.0003
- refractive index (308.01 K, 85 kPa, Liquid, Wavelength=632.8 nm, Minimum Deviation, x1 = 0.1): 1.4195 ± 0.0003
- refractive index (308.5 K, 85 kPa, Liquid, Wavelength=632.8 nm, Minimum Deviation, x1 = 0.7): 1.4265 ± 0.0003
- refractive index (308.52 K, 85 kPa, Liquid, Wavelength=632.8 nm, Minimum Deviation, x1 = 0.6): 1.4256 ± 0.0003
- refractive index (308.6 K, 85 kPa, Liquid, Wavelength=632.8 nm, Minimum Deviation, x1 = 0.5): 1.4245 ± 0.0003
- refractive index (308.63 K, 85 kPa, Liquid, Wavelength=632.8 nm, Minimum Deviation, x1 = 0.8): 1.4274 ± 0.0003
- refractive index (309.13 K, 85 kPa, Liquid, Wavelength=632.8 nm, Minimum Deviation, x1 = 0.3): 1.422 ± 0.001
- refractive index (309.27 K, 85 kPa, Liquid, Wavelength=632.8 nm, Minimum Deviation, x1 = 0.898): 1.428 ± 0.0003
- refractive index (309.33 K, 85 kPa, Liquid, Wavelength=632.8 nm, Minimum Deviation, x1 = 0.2): 1.4204 ± 0.0003
- refractive index (309.52 K, 85 kPa, Liquid, Wavelength=632.8 nm, Minimum Deviation, x1 = 0.1): 1.4189 ± 0.0003
- refractive index (309.56 K, 85 kPa, Liquid, Wavelength=632.8 nm, Minimum Deviation, x1 = 0.399): 1.423 ± 0.001
- refractive index (310.16 K, 85 kPa, Liquid, Wavelength=632.8 nm, Minimum Deviation, x1 = 0.5): 1.424 ± 0.0003
- refractive index (310.34 K, 85 kPa, Liquid, Wavelength=632.8 nm, Minimum Deviation, x1 = 0.7): 1.426 ± 0.0003
- refractive index (310.34 K, 85 kPa, Liquid, Wavelength=632.8 nm, Minimum Deviation, x1 = 0.8): 1.4269 ± 0.0003
- refractive index (310.75 K, 85 kPa, Liquid, Wavelength=632.8 nm, Minimum Deviation, x1 = 0.3): 1.4214 ± 0.0003
- refractive index (310.81 K, 85 kPa, Liquid, Wavelength=632.8 nm, Minimum Deviation, x1 = 0.6): 1.4249 ± 0.0003
- refractive index (310.88 K, 85 kPa, Liquid, Wavelength=632.8 nm, Minimum Deviation, x1 = 0.2): 1.4199 ± 0.0003
- refractive index (311.04 K, 85 kPa, Liquid, Wavelength=632.8 nm, Minimum Deviation, x1 = 0.1): 1.4183 ± 0.0003
- refractive index (311.13 K, 85 kPa, Liquid, Wavelength=632.8 nm, Minimum Deviation, x1 = 0.399): 1.4225 ± 0.0003
- refractive index (311.28 K, 85 kPa, Liquid, Wavelength=632.8 nm, Minimum Deviation, x1 = 0.898): 1.4274 ± 0.0003
- refractive index (311.69 K, 85 kPa, Liquid, Wavelength=632.8 nm, Minimum Deviation, x1 = 0.5): 1.4235 ± 0.0003
- refractive index (312.29 K, 85 kPa, Liquid, Wavelength=632.8 nm, Minimum Deviation, x1 = 0.3): 1.4209 ± 0.0003
- refractive index (312.54 K, 85 kPa, Liquid, Wavelength=632.8 nm, Minimum Deviation, x1 = 0.2): 1.4193 ± 0.0003
- refractive index (312.58 K, 85 kPa, Liquid, Wavelength=632.8 nm, Minimum Deviation, x1 = 0.1): 1.4178 ± 0.0003
- refractive index (312.73 K, 85 kPa, Liquid, Wavelength=632.8 nm, Minimum Deviation, x1 = 0.6): 1.4243 ± 0.0003
- refractive index (313.03 K, 85 kPa, Liquid, Wavelength=632.8 nm, Minimum Deviation, x1 = 0.399): 1.4219 ± 0.0003
- refractive index (313.17 K, 85 kPa, Liquid, Wavelength=632.8 nm, Minimum Deviation, x1 = 0.5): 1.4231 ± 0.0003
- refractive index (313.86 K, 85 kPa, Liquid, Wavelength=632.8 nm, Minimum Deviation, x1 = 0.3): 1.4204 ± 0.0003
- refractive index (314.02 K, 85 kPa, Liquid, Wavelength=632.8 nm, Minimum Deviation, x1 = 0.2): 1.4188 ± 0.0003
- refractive index (314.06 K, 85 kPa, Liquid, Wavelength=632.8 nm, Minimum Deviation, x1 = 0.1): 1.4172 ± 0.0003
- refractive index (314.31 K, 85 kPa, Liquid, Wavelength=632.8 nm, Minimum Deviation, x1 = 0.399): 1.4214 ± 0.0003
- refractive index (314.64 K, 85 kPa, Liquid, Wavelength=632.8 nm, Minimum Deviation, x1 = 0.6): 1.4237 ± 0.0003
- refractive index (315.45 K, 85 kPa, Liquid, Wavelength=632.8 nm, Minimum Deviation, x1 = 0.3): 1.4198 ± 0.0003
- refractive index (315.63 K, 85 kPa, Liquid, Wavelength=632.8 nm, Minimum Deviation, x1 = 0.1): 1.4166 ± 0.0003
- refractive index (315.63 K, 85 kPa, Liquid, Wavelength=632.8 nm, Minimum Deviation, x1 = 0.2): 1.4183 ± 0.0003
- refractive index (316.32 K, 85 kPa, Liquid, Wavelength=632.8 nm, Minimum Deviation, x1 = 0.399): 1.4208 ± 0.0003
- refractive index (316.32 K, 85 kPa, Liquid, Wavelength=632.8 nm, Minimum Deviation, x1 = 0.6): 1.4232 ± 0.0003
